Reference: BindingDB's records for doi:10.7270/Q2BC3WZZ (Pcmd, 2008)

Molecular target: T1, Coagulation factor XII (Homo sapiens, UniProt P00748)
T1 sequence (P00748 whole entry): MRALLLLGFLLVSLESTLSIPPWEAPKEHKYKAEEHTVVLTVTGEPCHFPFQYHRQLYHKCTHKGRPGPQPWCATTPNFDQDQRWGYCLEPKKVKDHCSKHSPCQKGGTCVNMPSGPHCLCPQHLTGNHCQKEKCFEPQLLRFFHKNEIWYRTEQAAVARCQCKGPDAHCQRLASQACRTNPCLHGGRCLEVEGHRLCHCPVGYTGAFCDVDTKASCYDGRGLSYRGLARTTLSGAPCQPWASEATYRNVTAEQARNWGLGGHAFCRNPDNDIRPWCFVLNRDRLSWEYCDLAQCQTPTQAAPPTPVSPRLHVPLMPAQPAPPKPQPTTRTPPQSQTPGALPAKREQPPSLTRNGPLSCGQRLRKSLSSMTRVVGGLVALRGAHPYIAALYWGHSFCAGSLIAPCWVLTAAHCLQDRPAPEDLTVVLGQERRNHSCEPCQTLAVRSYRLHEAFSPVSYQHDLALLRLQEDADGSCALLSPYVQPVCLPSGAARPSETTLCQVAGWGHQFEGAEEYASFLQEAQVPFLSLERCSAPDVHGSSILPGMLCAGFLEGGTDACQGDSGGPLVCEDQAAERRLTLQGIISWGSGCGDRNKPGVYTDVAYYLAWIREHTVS
Test: FXIIa inhibitor potency, concentration-response, biochemical (AID 716)

## CC(C)C1c2c(-c3cccs3)n[nH]c2OC(=N)C1C#N (configuration not stated) [SMR000014022]
  IC50: > 50 µM

## C=CCOC(=O)C1=C(C)N=C(C)C(C(=O)OCC=C)C1c1ccc(O)cc1 (configuration not stated) [SMR000107649]
  IC50: > 50 µM
